One assay addresses T1, human CB2 receptors (Homo sapiens, UniProt P34972).
T1 construct: expressed in transfected cells; host or cells: HEK293
Briefly: Human CB2 radioligand binding assay ([3H]CP-55,940 competition). As for the experimental part:
The CB1 and CB2 radioligand binding assays described herein are utilized to determine the selectivity of compounds of the present invention for binding to CB2 relative to CB1 receptors.
(§1) HEK293 cells stably expressing human CB2 receptors were grown until a confluent monolayer was formed. Briefly, the cells were harvested and homogenized in TE buffer (50 mM Tris-HCl, 1 mM MgCl2, and 1 mM EDTA) using a polytron for 2×10 second bursts in the presence of protease inhibitors, followed by centrifugation at 45,000×g for 20 minutes. The final membrane pellet was re-homogenized in storage buffer (50 mM Tris-HCl, 1 mM MgCl2, and 1 mM EDTA and 10% sucrose) and frozen at −78° C. until used. Saturation binding reactions were initiated by the addition of membrane preparation (protein concentration of 5 μg/well for human CB2) into wells of a deep well plate containing ([^3H]CP-55,940 (120 Ci/mmol, a nonselective CB agonist commercially available from Tocris) in assay buffer (50 mM Tris, 2.5 mM EDTA, 5 mM MgCl2, and 0.5 mg/mL fatty acid free BSA, pH 7.4). After 90 min incubation at 30° C., binding reaction was terminated by the addition of 300 μL/well of cold assay buffer followed by rapid vacuum filtration through a UniFilter-96 GF/C filter plates (pre-soaked in 1 mg/mL BSA for 2 hours). The bound activity was counted in a TopCount using Microscint-20. Saturation experiments were conducted with twelve concentrations of [^3H]CP-55,940 ranging from 0.01 to 8 nM. Competition experiments were conducted with 0.5 nM [^3H]CP-55,940 and five concentrations of displacing ligands selected from the range of 0.01 nM to 10 μM. The addition of 10 μM unlabeled CP-55,940 (Tocris, Ellisville, Mo.) was used to assess nonspecific binding.

In a further assay the target is T2, rat CB2 receptors (Rattus norvegicus, UniProt Q9QZN9).
T2 construct: expressed in transfected cells; host or cells: HEK293
T2 sequence (Q9QZN9 1-360): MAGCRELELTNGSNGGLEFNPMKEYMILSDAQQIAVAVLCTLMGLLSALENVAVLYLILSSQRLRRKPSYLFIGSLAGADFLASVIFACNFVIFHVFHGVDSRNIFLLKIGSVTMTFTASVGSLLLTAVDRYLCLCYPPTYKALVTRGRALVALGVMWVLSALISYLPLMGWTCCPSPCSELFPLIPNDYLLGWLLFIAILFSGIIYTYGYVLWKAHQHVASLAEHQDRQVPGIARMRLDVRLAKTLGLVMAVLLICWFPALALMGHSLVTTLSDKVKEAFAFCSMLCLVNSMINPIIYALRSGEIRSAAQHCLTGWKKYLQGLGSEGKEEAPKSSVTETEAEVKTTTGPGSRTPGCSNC
Briefly: Rat CB2 radioligand binding assay ([3H]CP-55,940 competition). Here is the method: as §1, with “expressing rat” for “expressing human”, “of 20” for “of 5”, “for rat” for “for human”, “containing [^3H]CP-55,940” for “containing ([^3H]CP-55,940”, “After 45” for “After 90”, “[…]” for “10 μM.”

Where [1] appears, read: HEK293 membranes, 0.5 nM [3H]CP-55,940, read-out: human CB2 Ki.

Ki data for 19 molecules are collected here from patent US8492371B2, “Compounds as cannabinoid receptor ligands” (priority 2009, dated 2013).

pKi: −log10 of the molar value. Read-outs that look alike come from different tables or passages of the source.

T1 sequence (P34972 whole entry): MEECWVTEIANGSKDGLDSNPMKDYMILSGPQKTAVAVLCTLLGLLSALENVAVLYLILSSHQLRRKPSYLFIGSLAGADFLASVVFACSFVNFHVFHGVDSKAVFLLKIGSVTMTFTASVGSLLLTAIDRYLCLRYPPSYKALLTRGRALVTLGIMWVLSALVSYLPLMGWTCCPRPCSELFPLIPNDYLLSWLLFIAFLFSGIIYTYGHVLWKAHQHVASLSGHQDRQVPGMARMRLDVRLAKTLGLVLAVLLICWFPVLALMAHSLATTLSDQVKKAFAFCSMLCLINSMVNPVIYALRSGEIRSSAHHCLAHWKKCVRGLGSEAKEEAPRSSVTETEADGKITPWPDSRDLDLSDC

As a reminder, the pKi is the Ki on a negative log10 scale, so that one unit is a factor of ten. On to `COCc1ccc(C(F)(F)F)cc1C(=O)/N=c1\cc(C(C)(C)C)n(C)n1C[C@H]1CCCO1` [Example 110, N-{(3E)-5-tert-butyl-1-methyl-2-[(2R)-tetrahydrofuran-2-ylmethyl]-1,2-dihydro-3H-pyrazol-3-ylidene}-2-(methoxymethyl)-5-(trifluoromethyl)benzamide], for which the pKi was 7.92 on human CB2 receptors and 8.52 at rat CB2 receptors.
For `Cn1c(C(C)(C)C)c/c(=N\C(=O)c2cc(Br)cc(C(F)(F)F)c2)n1C[C@H]1CCCO1` [Example 104, 3-bromo-N-{(3E)-5-tert-butyl-1-methyl-2-[(2R)-tetrahydrofuran-2-ylmethyl]-1,2-dihydro-3H-pyrazol-3-ylidene}-5-(trifluoromethyl)benzamide], in that order: 7.34 and 8.03.
On the same counts, the results for `COC(C)(C)CCOc1ccc(C(F)(F)F)cc1C(=O)/N=c1\cc(C(C)(C)C)n(C)n1C[C@H]1CCCO1` [Example 20, N-{(3E)-5-tert-butyl-1-methyl-2-[(2R)-tetrahydrofuran-2-ylmethyl]-1,2-dihydro-3H-pyrazol-3-ylidene}-2-(3-methoxy-3-methylbutoxy)-5-(trifluoromethyl)benzamide] are 7.60 and 7.64.
On to `CCOc1ccccc1C(=O)/N=c1\sc(C2CC2)nn1CC1CCCO1` (stereo not drawn) [Example 3, N-[(2Z)-5-cyclopropyl-3-(tetrahydrofuran-2-ylmethyl)-1,3,4-thiadiazol-2(3H)-ylidene]-2-ethoxybenzamide], for which the figures for the pKi at human CB2 receptors (setting [1]) and on rat CB2 receptors were 6.94 and 7.15, respectively.
With `COC(=O)Cc1ccc(C(F)(F)F)cc1C(=O)/N=c1\cc(C(C)(C)C)n(C)n1C[C@H]1CCCO1` [Example 128, methyl [2-[({(3E)-5-tert-butyl-1-methyl-2-[(2R)-tetrahydrofuran-2-ylmethyl]-1,2-dihydro-3H-pyrazol-3-ylidene}amino)carbonyl]-4-(trifluoromethyl)phenyl]acetate], the pKi on human CB2 receptors was 6.61; at rat CB2 receptors, 6.97.
For `Cn1c(C(C)(C)C)c/c(=N\C(=O)c2cc(C#N)ccc2F)n1C[C@H]1CCCO1` [Example 114, N-{(3E)-5-tert-butyl-1-methyl-2-[(2R)-tetrahydrofuran-2-ylmethyl]-1,2-dihydro-3H-pyrazol-3-ylidene}-5-cyano-2-fluorobenzamide], in that order: 7.39 and 7.70.
For `Cn1c(C(C)(C)C)c/c(=N\C(=O)c2cc(C(F)(F)F)ccc2OC[C@H]2C[C@@H](O)C2)n1C[C@H]1CCCO1` [Example 16, N-{(3E)-5-tert-butyl-1-methyl-2-[(2R)-tetrahydrofuran-2-ylmethyl]-1,2-dihydro-3H-pyrazol-3-ylidene}-2-[(cis-3-hydroxycyclobutyl)methoxy]-5-(trifluoromethyl)benzamide], in that order: 6.83 and 7.08.
For `COc1c(Cl)cc(C(F)(F)F)cc1C(=O)/N=c1\cc(C(C)(C)C)n(C)n1C[C@H]1CCCO1` [Example 53, N-{(3E)-5-tert-butyl-1-methyl-2-[(2R)-tetrahydrofuran-2-ylmethyl]-1,2-dihydro-3H-pyrazol-3-ylidene}-3-chloro-2-methoxy-5-(trifluoromethyl)benzamide], the pKi is 7.80 at human CB2 receptors and 8.37 at rat CB2 receptors.
As for `C#CC(C)(C)c1nn(C[C@H]2CCCO2)/c(=N/C(=O)c2cc(Cl)ccc2OC)s1` [Example 6, 5-chloro-N-[(2Z)-5-(1,1-dimethylprop-2-ynyl)-3-[(2R)-tetrahydrofuran-2-ylmethyl]-1,3,4-thiadiazol-2(3H)-ylidene]-2-methoxybenzamide], the figures for the pKi on human CB2 receptors and on rat CB2 receptors were 7.70 and 8.48, respectively.
Turning to `COc1ccc(Cl)cc1C(=O)/N=c1\sc(C2(C)CC2)nn1C[C@H]1CCCO1` [Example 5, 5-chloro-2-methoxy-N-[(2Z)-5-(1-methylcyclopropyl)-3-[(2R)-tetrahydrofuran-2-ylmethyl]-1,3,4-thiadiazol-2(3H)-ylidene]benzamide], the pKi at human CB2 receptors is 8.04; at rat CB2 receptors, 9.05.
Turning to `CN1CC[C@H](Oc2ccc(C(F)(F)F)cc2C(=O)/N=c2\oc(C(C)(C)C)cn2C[C@H]2CCCO2)C1` [Example 98, N-[(2Z)-5-tert-butyl-3-[(2R)-tetrahydrofuran-2-ylmethyl]-1,3-oxazol-2(3 H)-ylidene]-2-{[(3S)-1-methylpyrrolidin-3-yl]oxy}-5-(trifluoromethyl)benzamide], the results for the pKi on human CB2 receptors (setting [1]) and at rat CB2 receptors were 6.58 and 7.06, respectively.
On to `COCCNc1ccc(C(F)(F)F)cc1C(=O)/N=c1\cc(C(C)(C)C)n(C)n1C[C@H]1CCCO1` [Example 34], for which the figures for the pKi at human CB2 receptors and at rat CB2 receptors were 7.96 and 8.26, respectively.
For `Cn1c(C(C)(C)C)c/c(=N\C(=O)c2cc(N)cc(C(F)(F)F)c2)n1C[C@H]1CCCO1` [Example 107, 3-amino-N-{(3E)-5-tert-butyl-1-methyl-2-[(2R)-tetrahydrofuran-2-ylmethyl]-1,2-dihydro-3H-pyrazol-3-ylidene}-5-(trifluoromethyl)benzamide], in that order: 7.96 and 8.32.
As to `COc1ccc(C(F)(F)F)cc1C(=O)/N=c1\cc(C(C)(C)C)n(C)n1C[C@H]1CCCO1` [Example 47, N-{(3E)-5-tert-butyl-1-methyl-2-[(2R)-tetrahydrofuran-2-ylmethyl]-1,2-dihydro-3H-pyrazol-3-ylidene}-2-methoxy-5-(trifluoromethyl)benzamide], the figures for the pKi at human CB2 receptors and at rat CB2 receptors were 7.77 and 8.43, respectively.
For `CC1CCC(NC(=O)/N=c2\sc(C(C)(C)C)nn2C[C@H]2CCCO2)CC1` (stereo partly drawn) [Example 67, N-[(2Z)-5-tert-butyl-3-[(2R)-tetrahydrofuran-2-ylmethyl]-1,3,4-thiadiazol-2(3 H)-ylidene]-N′-(4-methylcyclohexyl)urea], the values for the pKi at human CB2 receptors and at rat CB2 receptors were 7.80 and 8.00, respectively.
For `Cn1c(C(C)(C)C)c/c(=N\C(=O)c2cc(C(F)(F)F)ccc2Oc2ccccc2)n1C[C@H]1CCCO1` [Example 133, N-{(3E)-5-tert-butyl-1-methyl-2-[(2R)-tetrahydrofuran-2-ylmethyl]-1,2-dihydro-3H-pyrazol-3-ylidene}-2-phenoxy-5-(trifluoromethyl)benzamide], in that order: 6.97 and 7.41.
As for `COCCOc1ccc(C(F)(F)F)cc1C(=O)/N=c1\cc(C(C)(C)C)n(C)n1C[C@H]1CCCO1` [Example 23, N-{(3E)-5-tert-butyl-1-methyl-2-[(2R)-tetrahydrofuran-2-ylmethyl]-1,2-dihydro-3H-pyrazol-3-ylidene}-2-(2-methoxyethoxy)-5-(trifluoromethyl)benzamide], the pKi was 7.52 on human CB2 receptors and 7.72 on rat CB2 receptors.
On to `COc1ccc(Cl)cc1C(=O)/N=c1\ccc(C)cn1CC1CCCO1` (stereo not drawn) [Example 10, 5-chloro-2-methoxy-N-[(2E)-5-methyl-1-(tetrahydrofuran-2-ylmethyl)pyridin-2(1 H)-ylidene]benzamide], for which, at human CB2 receptors (setting [1]), the pKi is 6.44.
`COc1ccc(Cl)cc1C(=O)/N=c1\sc(C2(C(F)(F)F)CCC2)nn1C[C@H]1CCCO1` [Example 8, 5-chloro-2-methoxy-N-[(2Z)-3-[(2R)-tetrahydrofuran-2-ylmethyl]-5-[1-(trifluoromethyl)cyclobutyl]-1,3,4-thiadiazol-2(3H)-ylidene]benzamide] had a pKi at rat CB2 receptors of 9.10.
